Measurements from patent US20230085307A1, “PYRIDAZINONE COMPOUND AND HERBICIDE” (NISSAN CHEMICAL CORPORATION, priority 2019, published 2023).

Tests used:
rice flat sedge = test: Test Example 3: herbicidal effect by foliage application, Wagner pot (Table 18, symbol E); format: in vivo, rice flat sedge (Cyperus iria); details: for herbicidal effect on E (rice flat sedge), rating 0-5: 320 g/ha
Procedure, shortened: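 Plants were sown in alluvial soil held under 0.1–0.5 cm standing water and grown 14 days in a greenhouse at 25–30 °C. An emulsifiable formulation, water-diluted to the set dose, was then sprayed onto the foliage, and effects were scored three weeks later using previously defined criteria.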

wild oat [1] = test: Test Example 4: herbicidal effect by soil treatment (Table 19, symbol I); format: in vivo, wild oat (Avena fatua)
Procedure, shortened: (§1)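 Pre-emergence style soil spray: seeds under ~1.5 cm sterilized diluvial soil received a uniform coat of emulsion diluted to the predetermined herbicide amount. Greenhouse 25–30° C; readout at week three on previously defined criteria.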

green foxtail [2] = test: Test Example 4: herbicidal effect by soil treatment (Table 19, symbol G); format: in vivo, green foxtail (Setaria viridis)
Procedure, shortened: as §1

Japanese bulrush = test: Test Example 1: herbicidal activity, application before weed generation under submerged conditions (Table 16, symbol B); format: in vivo, Japanese bulrush (Schoenoplectus juncoides); details: 320 g/ha applied herbicide
Procedure, shortened: (§2)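 Submerged Wagner pots (alluvial soil, 4 cm water) sown with weed seeds and planted with 2.5-leaf rice seedlings; emulsifiable concentrate diluted in water applied to water surface on sowing day. Held in greenhouse at 25-30 °C; injury scored 0-5 by herbicidal rate after three weeks.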

barnyard grass [3] = test: Test Example 4: herbicidal effect by soil treatment (Table 19, symbol H); format: in vivo, barnyard grass (Echinochloa crus-galli)
Procedure, shortened: as §1

wild oat [4] = test: Test Example 5: herbicidal effect by foliage application, plastic box (Table 20, symbol I); format: in vivo, wild oat (Avena fatua); details: foliage application; for effect on wild oat (I): 3 weeks after application
Procedure, shortened: (§3)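 Plants were sown into sterilized diluvial soil under about 1.5 cm cover and kept in a greenhouse at 25° C. to 30° C. Fourteen days on, foliage received an even spray of the diluted emulsion. Herbicidal or crop effect was judged three weeks afterwards.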

velvetleaf = test: Test Example 5: herbicidal effect by foliage application, plastic box (Table 20, symbol M); format: in vivo, velvetleaf (Abutilon theophrasti); details: foliage application; for effect on velvetleaf (M): 3 weeks after application
Procedure, shortened: as §3

blackgrass = test: Test Example 5: herbicidal effect by foliage application, plastic box (Table 20, symbol J); format: in vivo, blackgrass (Alopecurus myosuroides); details: foliage application; for effect on blackgrass (J): 3 weeks after application
Procedure, shortened: as §3

oval-leafed pondweed = test: Test Example 1: herbicidal activity, application before weed generation under submerged conditions (Table 16, symbol C); format: in vivo, oval-leafed pondweed (Monochoria vaginalis); details: 320 g/ha applied herbicide
Procedure, shortened: as §2

green foxtail [5] = test: Test Example 5: herbicidal effect by foliage application, plastic box (Table 20, symbol G); format: in vivo, green foxtail (Setaria viridis); details: foliage application; for effect on green foxtail (G): 3 weeks after application
Procedure, shortened: as §3

barnyard grass [6] = test: Test Example 5: herbicidal effect by foliage application, plastic box (Table 20, symbol H); format: in vivo, barnyard grass (Echinochloa crus-galli); details: foliage application; for effect on barnyard grass (H): 3 weeks after application
Procedure, shortened: as §3

chickweed [7] = test: Test Example 4: herbicidal effect by soil treatment (Table 19, symbol P); format: in vivo, common chickweed (Stellaria media)
Procedure, shortened: as §1

redroot pigweed [8] = test: Test Example 4: herbicidal effect by soil treatment (Table 19, symbol N); format: in vivo, redroot pigweed (Amaranthus retroflexus)
Procedure, shortened: as §1

chickweed [9] = test: Test Example 5: herbicidal effect by foliage application, plastic box (Table 20, symbol P); format: in vivo, common chickweed (Stellaria media); details: foliage application
Procedure, shortened: as §3

redroot pigweed [10] = test: Test Example 5: herbicidal effect by foliage application, plastic box (Table 20, symbol N); format: in vivo, redroot pigweed (Amaranthus retroflexus); details: foliage application
Procedure, shortened: as §3

[11] = 320 g/ha, evaluated three weeks after application
[12] = amount of applied herbicide 320 g/ha
[13] = 320 g/ha, three weeks after application
[14] = AAH 320 g/ha, evaluated three weeks after application

COCCOCOc1c(C)nn(C)c(=O)c1-c1c(-c2ccc(OCCC3OCCO3)cc2)sc2ccccc12 [1-224]
herbicidal effect on E (rice flat sedge), rating 0-5 (rice flat sedge): 5 (Herbicidal rate of 90% or more (almost completely withered))
I: wild oat, herbicidal effect rating (wild oat [1]; AAH 320 g/ha): 0 (Herbicidal rate of 5% or less (almost no effect))
G: green foxtail, herbicidal effect rating (green foxtail [2]; AAH 320 g/ha): 3 (Herbicidal rate of 40% or more and less than 70%)
Herbicidal effect on B: Japanese bulrush (grade 0-5) (Japanese bulrush): 5 (Herbicidal rate of 90% or more (almost completely withered))
H: barnyard grass, herbicidal effect rating (barnyard grass [3]; AAH 320 g/ha): 1 (Herbicidal rate of 5% or more and less than 20%)
effect on wild oat (I) (wild oat [4]; 320 g/ha): 0 (Herbicidal rate of 5% or less (almost no effect))
effect on velvetleaf (M) (velvetleaf; 320 g/ha): 5 (Herbicidal rate of 90% or more (almost completely withered))
effect on blackgrass (J) (blackgrass; 320 g/ha): 0 (Herbicidal rate of 5% or less (almost no effect))
Herbicidal effect on C: oval-leafed pondweed (grade 0-5) (oval-leafed pondweed): 3 (Herbicidal rate of 40% or more and less than 70%)
effect on green foxtail (G) (green foxtail [5]; 320 g/ha): 5 (Herbicidal rate of 90% or more (almost completely withered))
effect on barnyard grass (H) (barnyard grass [6]; 320 g/ha): 5 (Herbicidal rate of 90% or more (almost completely withered))
P: chickweed, herbicidal effect rating (chickweed [7]; AAH 320 g/ha): 0 (Herbicidal rate of 5% or less (almost no effect))
N: redroot pigweed, herbicidal effect rating (redroot pigweed [8]; AAH 320 g/ha): 4 (Herbicidal rate of 70% or more and less than 90%)

COc1cc(F)ccc1-c1sc2ccc(Cl)cc2c1-c1c(O)c(C)nn(C)c1=O [Compound No. 2-095, 4-(5-chloro-2-(4-fluoro-2-methoxyphenyl)benzo[b]thiophen-3-yl)-5-hydroxy-2,6-dimethylpyridazin-3(2H)-one]
herbicidal effect on E (rice flat sedge), rating 0-5 (rice flat sedge): 5 (Herbicidal rate of 90% or more (almost completely withered))
herbicidal effect rating, I: wild oat (wild oat [1]; 320 g/ha): 0 (Herbicidal rate of 5% or less (almost no effect))
herbicidal effect rating, G: green foxtail (green foxtail [2]; 320 g/ha): 4 (Herbicidal rate of 70% or more and less than 90%)
Herbicidal effect on B: Japanese bulrush (grade 0-5) (Japanese bulrush): 0 (Herbicidal rate of 5% or less (almost no effect))
herbicidal effect rating, H: barnyard grass (barnyard grass [3]; 320 g/ha): 4 (Herbicidal rate of 70% or more and less than 90%)
herbicidal effect on I: wild oat (wild oat [4]; [11]): 4 (Herbicidal rate of 70% or more and less than 90%)
herbicidal effect on M: velvetleaf (velvetleaf; [11]): 5 (Herbicidal rate of 90% or more (almost completely withered))
herbicidal effect on J: blackgrass (blackgrass; [11]): 4 (Herbicidal rate of 70% or more and less than 90%)
Herbicidal effect on C: oval-leafed pondweed (grade 0-5) (oval-leafed pondweed): 0 (Herbicidal rate of 5% or less (almost no effect))
herbicidal effect on P: chickweed (chickweed [9]; [11]): 5 (Herbicidal rate of 90% or more (almost completely withered))
herbicidal effect on G: green foxtail (green foxtail [5]; [11]): 5 (Herbicidal rate of 90% or more (almost completely withered))
herbicidal effect on N: redroot pigweed (redroot pigweed [10]; [11]): 5 (Herbicidal rate of 90% or more (almost completely withered))
herbicidal effect on H: barnyard grass (barnyard grass [6]; [11]): 4 (Herbicidal rate of 70% or more and less than 90%)
herbicidal effect rating, P: chickweed (chickweed [7]; 320 g/ha): 3 (Herbicidal rate of 40% or more and less than 70%)
herbicidal effect rating, N: redroot pigweed (redroot pigweed [8]; 320 g/ha): 4 (Herbicidal rate of 70% or more and less than 90%)

Cc1nn(C)c(=O)c(-c2c(-c3ccc(Cl)cc3)sc3ccc(F)cc23)c1O [Compound No. 2-010, 4-(2-(4-chlorophenyl)-5-fluorobenzo[b]thiophen-3-yl)-5-hydroxy-2,6-dimethylpyridazin-3(2H)-one]
herbicidal effect on E (rice flat sedge), rating 0-5 (rice flat sedge): 5 (Herbicidal rate of 90% or more (almost completely withered))
herbicidal effect rating, I: wild oat (wild oat [1]; 320 g/ha): 1 (Herbicidal rate of 5% or more and less than 20%)
herbicidal effect rating, G: green foxtail (green foxtail [2]; 320 g/ha): 5 (Herbicidal rate of 90% or more (almost completely withered))
Herbicidal effect on B: Japanese bulrush (grade 0-5) (Japanese bulrush): 3 (Herbicidal rate of 40% or more and less than 70%)
herbicidal effect rating, H: barnyard grass (barnyard grass [3]; 320 g/ha): 5 (Herbicidal rate of 90% or more (almost completely withered))
effect on wild oat (I) (wild oat [4]; 320 g/ha): 4 (Herbicidal rate of 70% or more and less than 90%)
effect on velvetleaf (M) (velvetleaf; 320 g/ha): 5 (Herbicidal rate of 90% or more (almost completely withered))
effect on blackgrass (J) (blackgrass; 320 g/ha): 3 (Herbicidal rate of 40% or more and less than 70%)
Herbicidal effect on C: oval-leafed pondweed (grade 0-5) (oval-leafed pondweed): 1 (Herbicidal rate of 5% or more and less than 20%)
effect on green foxtail (G) (green foxtail [5]; 320 g/ha): 5 (Herbicidal rate of 90% or more (almost completely withered))
effect on barnyard grass (H) (barnyard grass [6]; 320 g/ha): 5 (Herbicidal rate of 90% or more (almost completely withered))
herbicidal effect rating, P: chickweed (chickweed [7]; 320 g/ha): 4 (Herbicidal rate of 70% or more and less than 90%)
herbicidal effect rating, N: redroot pigweed (redroot pigweed [8]; 320 g/ha): 5 (Herbicidal rate of 90% or more (almost completely withered))

CCCOc1ccc(-c2sc3ccccc3c2-c2c(O)c(C)nn(C)c2=O)cc1 [1-019]
herbicidal effect on E (rice flat sedge), rating 0-5 (rice flat sedge): 5 (Herbicidal rate of 90% or more (almost completely withered))
herbicidal effect rating, I: wild oat (wild oat [1]; [12]): 0 (Herbicidal rate of 5% or less (almost no effect))
herbicidal effect rating, G: green foxtail (green foxtail [2]; [12]): 2 (Herbicidal rate of 20% or more and less than 40%)
Herbicidal effect on B: Japanese bulrush (grade 0-5) (Japanese bulrush): 5 (Herbicidal rate of 90% or more (almost completely withered))
herbicidal effect rating, H: barnyard grass (barnyard grass [3]; [12]): 3 (Herbicidal rate of 40% or more and less than 70%)
herbicidal effect grade, I: wild oat (wild oat [4]; [13]): 3 (Herbicidal rate of 40% or more and less than 70%)
herbicidal effect grade, M: velvetleaf (velvetleaf; [13]): 5 (Herbicidal rate of 90% or more (almost completely withered))
herbicidal effect grade, J: blackgrass (blackgrass; [13]): 4 (Herbicidal rate of 70% or more and less than 90%)
Herbicidal effect on C: oval-leafed pondweed (grade 0-5) (oval-leafed pondweed): 4 (Herbicidal rate of 70% or more and less than 90%)
herbicidal effect grade, P: chickweed (chickweed [9]; [13]): 5 (Herbicidal rate of 90% or more (almost completely withered))
herbicidal effect grade, G: green foxtail (green foxtail [5]; [13]): 5 (Herbicidal rate of 90% or more (almost completely withered))
herbicidal effect grade, N: redroot pigweed (redroot pigweed [10]; [13]): 5 (Herbicidal rate of 90% or more (almost completely withered))
herbicidal effect grade, H: barnyard grass (barnyard grass [6]; [13]): 5 (Herbicidal rate of 90% or more (almost completely withered))
herbicidal effect rating, P: chickweed (chickweed [7]; [12]): 5 (Herbicidal rate of 90% or more (almost completely withered))
herbicidal effect rating, N: redroot pigweed (redroot pigweed [8]; [12]): 4 (Herbicidal rate of 70% or more and less than 90%)

Cc1nn(C)c(=O)c(-c2c(-c3ccc(OC(F)F)cc3)sc3ccc(F)cc23)c1OC(=O)C1CCCC1 [2-280]
herbicidal effect on E: rice flat sedge (rice flat sedge; [12]): 4 (Herbicidal rate of 70% or more and less than 90%)
herbicidal effect on I: wild oat (wild oat [1]; [12]): 0 (Herbicidal rate of 5% or less (almost no effect))
herbicidal effect on G: green foxtail (green foxtail [2]; [12]): 2 (Herbicidal rate of 20% or more and less than 40%)
Herbicidal effect on B: Japanese bulrush (grade 0-5) (Japanese bulrush): 3 (Herbicidal rate of 40% or more and less than 70%)
herbicidal effect on H: barnyard grass (barnyard grass [3]; [12]): 3 (Herbicidal rate of 40% or more and less than 70%)
I: wild oat, herbicidal effect (criteria 0-5) (wild oat [4]; [14]): 3 (Herbicidal rate of 40% or more and less than 70%)
M: velvetleaf, herbicidal effect (criteria 0-5) (velvetleaf; [14]): 5 (Herbicidal rate of 90% or more (almost completely withered))
J: blackgrass, herbicidal effect (criteria 0-5) (blackgrass; [14]): 5 (Herbicidal rate of 90% or more (almost completely withered))
Herbicidal effect on C: oval-leafed pondweed (grade 0-5) (oval-leafed pondweed): 0 (Herbicidal rate of 5% or less (almost no effect))
P: chickweed, herbicidal effect (criteria 0-5) (chickweed [9]; [14]): 5 (Herbicidal rate of 90% or more (almost completely withered))
G: green foxtail, herbicidal effect (criteria 0-5) (green foxtail [5]; [14]): 4 (Herbicidal rate of 70% or more and less than 90%)
N: redroot pigweed, herbicidal effect (criteria 0-5) (redroot pigweed [10]; [14]): 5 (Herbicidal rate of 90% or more (almost completely withered))
H: barnyard grass, herbicidal effect (criteria 0-5) (barnyard grass [6]; [14]): 5 (Herbicidal rate of 90% or more (almost completely withered))
herbicidal effect on P: chickweed (chickweed [7]; [12]): 1 (Herbicidal rate of 5% or more and less than 20%)
herbicidal effect on N: redroot pigweed (redroot pigweed [8]; [12]): 5 (Herbicidal rate of 90% or more (almost completely withered))
